Experimental findings from patent US20070078263A1, “BIARYL SUBSTITUTED HETEROCYCLE INHIBITORS OF LTA4H FOR TREATING INFLAMMATION” (deCODE Chemistry, Inc., priority 2005, published 2007) are described below.

Counter-ions that a name gives are not always drawn. Like-named read-outs stand apart in the source and are kept apart here. Bounds are passed on as bounds.

One test concerns the target T1, human LTA4 hydrolase (Homo sapiens, UniProt P09960).
T1 construct: A human LTA4 hydrolase full-length cDNA clone (NM 000895) was purchased; His tag (6xHis of vector pDEST17); made in house; host or cells: Escherichia coli BL21-AI
T1 sequence (P09960 1-611): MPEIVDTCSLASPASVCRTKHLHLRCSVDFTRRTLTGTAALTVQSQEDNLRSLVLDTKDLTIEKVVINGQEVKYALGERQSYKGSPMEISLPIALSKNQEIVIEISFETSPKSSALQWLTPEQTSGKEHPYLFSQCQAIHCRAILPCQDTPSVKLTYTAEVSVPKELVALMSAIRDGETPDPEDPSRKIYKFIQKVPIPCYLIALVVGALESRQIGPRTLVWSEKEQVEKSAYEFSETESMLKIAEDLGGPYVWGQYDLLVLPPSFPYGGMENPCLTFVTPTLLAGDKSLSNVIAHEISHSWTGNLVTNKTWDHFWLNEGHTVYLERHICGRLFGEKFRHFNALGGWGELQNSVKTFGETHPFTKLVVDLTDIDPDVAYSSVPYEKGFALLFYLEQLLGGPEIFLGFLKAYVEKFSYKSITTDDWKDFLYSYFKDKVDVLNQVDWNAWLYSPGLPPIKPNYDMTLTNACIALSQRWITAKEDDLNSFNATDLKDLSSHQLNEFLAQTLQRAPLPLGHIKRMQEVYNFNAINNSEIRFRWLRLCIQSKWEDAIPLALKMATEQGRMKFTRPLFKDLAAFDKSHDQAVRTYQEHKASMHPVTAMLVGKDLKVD
Description: In vitro assay testing inhibitory activity against purified recombinant human LTA4 hydrolase (LTB4 formed, LC-MS/MS).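 Also: 200 nM enzyme preincubated 10 min at room temperature with serial inhibitor dilutions in pH 8.0 Tris buffer with BSA and 10% DMSO, then 2 µM LTA4 added.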 Format: biochemical.

Another test concerns human whole blood. Description: Ex vivo assay testing inhibitory activity in human whole blood after stimulation with calcium ionophore (LTB4 ELISA).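 Also: heparinized human blood preincubated 15 min at 37 °C with compound, then ionomycin-stimulated for 30 min, LTB4 in plasma supernatant quantified by ELISA.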 Format: cell-based. The settings on record: Ionomycin 20 μM, read-out: hWBIC50. Background: An ELISA detects its analyte on a solid surface through an enzyme-linked reagent.
[1] abbreviates: recombinant human LTA4 hydrolase 200 nM, LTA4 2 μM, read-out: AvgIC50.

Description for human LTA4 hydrolase: (1) In vitro assay testing inhibitory activity against purified recombinant human LTA4 hydroase. […] The gene was amplified by polymerase chain reaction and transferred via pDONR201 into the bacterial expression vector pDEST17 by recombination (both plasmids from Invitrogen, Carlsbad, Calif.). The resulting construct was transformed into Escherichia coli BL21-AI (Invitrogen), and expression was induced by chemical induction with arabinose. The recombinant enzyme was purified by chromatography on an FPLC system (Amersham Biosciences, Uppsala, Sweden) using immobilized metal affinity chromatography (Ni-NTA Superflow, Qiagen, Hilden, Germany) and anion exchange chromatography (MonoQ HR 10/10, Amersham Biosciences).
The compounds of the invention were incubated in a series of dilutions with 200 nM of recombinant enzyme in assay buffer (100 mM Tris-HCl, 100 mM NaCl, 5 mg/ml fatty-acid free BSA, 10% DMSO, pH 8.0) for 10 min at room temperature to allow binding between LTA4 hydrolase and the inhibitors. LTA4 was prepared by alkaline hydrolysis of LTA4 methyl ester (Biomol, Plymouth Meeting, Pa., or Cayman Chemicals, Ann Arbor, Mich.). A solution of 10 μg of the ester was dried under a nitrogen stream and redissolved in 60 μl of a solution of 80% acetone and 20% 0.25 M NaOH. After incubation for 40 min at room temperature the resulting approximately 500 μM tock of LTA4 was kept at −80° C. for no more than a few days prior to use.
Immediately before the assay, LTA4 was diluted to a concentration of 10 μM in assay buffer (without DMSO) and added to the reaction mixture to a final concentration of 2 μM to initiate the enzyme reaction. […] The samples were then kept at 4° C. overnight to complete protein precipitation and centrifuged for 15 min at 1800 g.
Description for human whole blood: (2) Ex vivo assay testing inhibitory activity in human whole blood after stimulation with calcium ionophor.
Human blood was collected in heparin-containing Vacutainer tubes. […] Then 4 μl of a series of compound dilutions (in DMSO) were added, followed by a 15 min incubation at 37° C. with gentle shaking. After that, blood samples were stimulated by adding Ionomycin (Calbiochem) to a final concentration of 20 μM. After another incubation at 37° C. for 30 min, samples were centrifuged for 5 min at 1800 g and 4° C. Supernatants were taken and LTB4 concentrations were determined using a commercially available enzyme-linked immunosobentassay (R&D Systems, Minneapolis, Minn.) according to the manufacturer's instructions.

For the molecule `O=C(O)CCCN1CCC[C@@H]1COc1ccc(Cc2ccc(-c3cccs3)cc2)cc1` [Example 113, 4-{(R)-2-[4-(4-Thiophen-2-yl-benzyl)-phenoxymethyl]-pyrrolidin-1-yl}-butyric acid hydrogen chloride salt], the IC50 on human LTA4 hydrolase (setting [1]) and in the test on human whole blood was less than 5 µM each time.

For the molecule `c1ccc2sc(Cc3ccc(OC[C@H]4CCCN4)cc3)nc2c1` [Example 104, 2-[4-((R)-1-Pyrrolidin-2-ylmethoxy)-benzyl]-benzothiazole-hydrogen chloride salt], the IC50 at human LTA4 hydrolase (setting [1]) and in the test on human whole blood was less than 5 µM in each case.

`O=C(O)CCCN1CCCC[C@H]1COc1ccc(Oc2ccc(Cl)cc2)cc1` [Example 61, 4-{(S)-2-[4-(4-Chloro-phenoxy)-phenoxymethyl]-piperidin-1-yl}-butyric acid hydrochloride]: the IC50 on human LTA4 hydrolase and with human whole blood was less than 5 µM in each case.

`O=C(O)CCCN1CCC[C@@H]1COc1ccc(Cc2ccc(-c3ccsc3)cc2)cc1` [Example 112, 4-{(R)-2-[4-(4-Thiophen-3-yl-benzyl)-phenoxymethyl]-pyrrolidin-1-yl}-butyric acid hydrogen chloride salt]: the IC50 on human LTA4 hydrolase (setting [1]) and with human whole blood was less than 5 µM in each case.

Take `Cc1ccc(-c2ccc(Cc3ccc(OC[C@H]4CCCN4)cc3)cc2)s1` [Example 110, (R)-2-{4-[4-(5-methyl-thiophen-2-yl)-benzyl]-phenoxymethyl}-pyrrolidine hydrogen chloroide salt]: the IC50 is less than 5 µM on human LTA4 hydrolase (setting [1]) and 5 to 20 µM in the test on human whole blood.

Take `Clc1ccc(Oc2ccc(OC[C@@H]3CCCCN3)cc2)cc1` [Example 56, (S)-2-[4-(4-Chloro-phenoxy)-phenoxymethyl]-piperidine hydrochloride]: the IC50 on human LTA4 hydrolase (setting [1]) and in the test with human whole blood was less than 5 µM each time.

With `O=C(O)CCCN1CCC[C@H]1COc1ccc(Cc2ccc(-c3ccsc3)cc2)cc1` [Example 169, 4-{(S)-2-[4-(4-Thiophen-3-yl-benzyl)-phenoxymethyl]-pyrrolidin-1-yl}-butyric acid sodium salt], the IC50 on human LTA4 hydrolase (setting [1]) and in the test on human whole blood was less than 5 µM in each case.

Regarding `Fc1ccc(Oc2ccc(OC[C@@H]3CCCCN3)cc2)cc1` [Example 57, (S)-2-[4-(4-Fluoro-phenoxy)-phenoxymethyl]-piperidine hydrochloride], the IC50 at human LTA4 hydrolase (setting [1]) and in the test on human whole blood was less than 5 µM in each case.

For the molecule `c1ccc(Cc2ccc(OC[C@H]3CCCN3Cc3ccccn3)cc2)cc1` [Example 4, 2-[(R)-2-(4-benzyl-phenoxymethyl)-pyrrolidin-1-ylmethyl]-pyridine], the IC50 at human LTA4 hydrolase (setting [1]) and in the test with human whole blood was less than 5 µM in each case.

Regarding `O=C(O)CCN1CCC[C@@H]1COc1ccc(Cc2ccccc2)cc1` [Example 9, 3-[(R)-2-(4-benzyl-phenoxymethyl)-pyrrolidin-1-yl]-propionic acid hydrochloride], the IC50 at human LTA4 hydrolase (setting [1]) and in the test with human whole blood was less than 5 µM throughout.

On to `CS(=O)(=O)NCCCN1CCC[C@H]1COc1ccc(Oc2ccc(Cl)cc2)cc1` [Example 39, N-(3-{(S)-2-[4-(4-Chloro-phenoxy)-phenoxymethyl]-pyrrolidin-1-yl}-propyl)-methanesulfonamide HCl], for which the IC50 at human LTA4 hydrolase (setting [1]) and in the test with human whole blood was less than 5 µM each time.

`c1ccc(Cc2ccc(OCC3CCCCN3)cc2)cc1` (racemic) [Example 73, (+/−)-2-[(4-Benzylphenoxy)methyl]-piperidine hydrochloride]: the IC50 on human LTA4 hydrolase (setting [1]) and with human whole blood was less than 5 µM each time.

On to `c1cnn(-c2ccc(Oc3ccc(OC[C@H]4CCCN4)cc3)cc2)c1` [Example 133, 1-{4-[4-((R)-1-Pyrrolidin-2-ylmethoxy)-phenoxy]-phenyl}-1H-pyrazole, hydrogen chloride salt], for which the IC50 at human LTA4 hydrolase (setting [1]) is 5 to 20 µM; in the test on human whole blood, less than 5 µM.

As for `FC(F)(F)c1ccc(Oc2ccc(OC[C@H]3CCCN3)cc2)cc1` [Example 16, (R)-2-[4-(4-Trifluoromethyl-phenoxy)-phenoxymethyl]-pyrrolidine hydrochloride], the IC50 at human LTA4 hydrolase (setting [1]) and in the test with human whole blood was less than 5 µM each time.

Consider `c1ccc2sc(Oc3ccc(OC[C@H]4CCCN4)cc3)nc2c1` [Example 100, (R)-2-[4-(Benzothiazol-2-yloxy)-phenoxymethyl]-pyrrolidine-Hydrogen chloride salt], for which the IC50 on human LTA4 hydrolase (setting [1]) and in the test with human whole blood was less than 5 µM each time.

For the molecule `c1ccc(Oc2ccc(OCC3CCCCN3)cc2)cc1` (racemic) [Example 74, (+/−)-2-[(4-phenoxyphenoxy)methyl]-piperidine hydrochloride], the IC50 at human LTA4 hydrolase (setting [1]) and in the test with human whole blood was less than 5 µM throughout.

For `O=C(O)CCCN1CCC[C@@H]1COc1ccc(Oc2ccc(-c3cnco3)cc2)cc1` [Example 88, 4-{(R)-2-[4-(4-Oxazol-5-yl-phenoxy)-phenoxymethyl]-pyrrolidin-1-yl}-butyric acid], the IC50 on human LTA4 hydrolase (setting [1]) and with human whole blood was less than 5 µM each time.

Consider `O=C(O)CCC[N+]1([O-])CCC[C@H]1COc1ccc(Oc2ccc(Cl)cc2)cc1` (stereo partly drawn) [Example 70, 4-{(S)-2-[4-(4-Chloro-phenoxy)-phenoxymethyl]-1-hydroxy-pyrrolidin-1-yl}-butyric acid], for which the figures for the IC50 at human LTA4 hydrolase (setting [1]) and with human whole blood were less than 5 µM and 5 to 20 µM, respectively.

As to `Clc1ccc(Oc2ccc(OC[C@H]3CCCN3)cc2)cc1` [Example 13, (R)-2-[4-(4-Chloro-phenoxy)-phenoxymethyl]-pyrrolidine hydrochloride], the IC50 on human LTA4 hydrolase (setting [1]) and in the test with human whole blood was less than 5 µM in each case.

As for `c1ccc(Cc2ccc(OC[C@H]3CCCN3Cc3cccnc3)cc2)cc1` [Example 5, 3-[(R)-2-(4-benzyl-phenoxymethyl)-pyrrolidin-1-ylmethyl]-pyridine], the IC50 on human LTA4 hydrolase (setting [1]) and in the test with human whole blood was less than 5 µM throughout.

For `c1cc(-c2ccc(Oc3ccc(OC[C@H]4CCCN4)cc3)cc2)cs1` [Example 130, (R)-2-[4-(4-Thiophen-3-yl-phenoxy)-phenoxymethyl]-pyrrolidine-1-hydrogen chloride salt], the IC50 is 5 to 20 µM on human LTA4 hydrolase (setting [1]) and less than 5 µM in the test with human whole blood.

For the molecule `O=C(O)CCCN1CCC[C@H]1COc1ccc(Cc2ccc(Cl)cc2)cc1` [Example 21, 4-{(S)-2-[4-(4-Chloro-benzyl)-phenoxymethyl]-pyrrolidin-1-yl}-butyric acid hydrochloride], the IC50 at human LTA4 hydrolase (setting [1]) and in the test with human whole blood was less than 5 µM in each case.

For the molecule `COC(=O)CCCN1CCCC[C@H]1COc1ccc(Oc2ccc(Cl)cc2)cc1` [Example 60, 4-{(S)-2-[4-(4-Chloro-phenoxy)-phenoxymethyl]-piperidin-1-yl}-butyric acid methyl ester], the IC50 at human LTA4 hydrolase (setting [1]) and in the test on human whole blood was less than 5 µM throughout.

For the molecule `c1ccc(COc2ccc(OC[C@H]3CCCN3)cc2)cc1` [Example 90, (R)-2-(4-Benzyloxy-phenoxymethyl)-pyrrolidine hydrogen chloride salt], the IC50 on human LTA4 hydrolase (setting [1]) and in the test on human whole blood was less than 5 µM throughout.

Take `Brc1ccc(Cc2ccc(OC[C@H]3CCCN3)cc2)cc1` [Example 105, (R)-2-[4-(4-Bromo-benzyl)-phenoxymethyl]-pyrrolidine hydrogen chloride salt]: the IC50 at human LTA4 hydrolase (setting [1]) and with human whole blood was less than 5 µM in each case.

Turning to `c1ccc(Oc2ccc(OC[C@H]3CCCCN3)cc2)cc1` [Example 50, (R)-2-(4-Phenoxy-phenoxymethyl)-piperidine hydrochloride], the IC50 on human LTA4 hydrolase (setting [1]) and in the test on human whole blood was less than 5 µM each time.

For the molecule `FC(F)(F)c1ccc(Oc2ccc(OC[C@H]3CCCCN3)cc2)cc1` [Example 55, (R)-2-[4-(4-Trifluoromethyl-phenoxy)-phenoxymethyl]-piperidine hydrochloride], the IC50 at human LTA4 hydrolase (setting [1]) and with human whole blood was less than 5 µM throughout.

Turning to `c1ccc(-c2ccc(Oc3ccc(OC[C@@H]4CCCCN4)cc3)cc2)cc1` [Example 53, (S)-2-[4-(Biphenyl-4-yloxy)-phenoxymethyl]-piperidine hydrochloride], the IC50 at human LTA4 hydrolase and with human whole blood was less than 5 µM throughout.

For the molecule `NC(=O)CCCN1CCC[C@H]1COc1ccc(Oc2ccc(Cl)cc2)cc1` [Example 23, 4-{(S)-2-[4-(4-Chloro-phenoxy)-phenoxymethyl]-pyrrolidin-1-yl}-butyramide], the IC50 on human LTA4 hydrolase (setting [1]) and in the test on human whole blood was less than 5 µM throughout.

Take `c1ccc(-c2ccc(Cc3ccc(OC[C@H]4CCCN4)cc3)s2)cc1` [Example 159, (R)-2-[4-(5-Phenyl-thiophen-2-ylmethyl)-phenoxymethyl]-pyrrolidine hydrochloride salt]: the IC50 on human LTA4 hydrolase (setting [1]) and in the test on human whole blood was less than 5 µM in each case.

For the molecule `COC(=O)CCCN1CCC[C@@H]1COc1ccc(Cc2ccccc2)cc1` [Example 8, 4-[(R)-2-(4-benzyl-phenoxymethyl)-pyrrolidin-1-yl]-butyric acid methyl ester], the IC50 at human LTA4 hydrolase (setting [1]) and with human whole blood was less than 5 µM each time.

As for `Clc1ccc(Cc2ccc(OC[C@@H]3CCCN3)cc2)cc1` [Example 64, (S)-2-[4-(4-Chloro-benzyl)-phenoxymethyl]-pyrrolidine hydrochloride], the IC50 at human LTA4 hydrolase (setting [1]) and in the test on human whole blood was less than 5 µM each time.
